Measured values published in patent US20240158392A1 (Janssen Biotech, Inc., priority 2021, published 2024).

Target: SIK2 (Homo sapiens, UniProt Q9H0K1)
Assay: SIK2 Enzymatic Assay High Version 2 (High ATP)
Format: biochemical
Details: not given
Procedure, shortened: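 At room temperature, enzyme (6 nM, 2× final) was preincubated with compound for 30 min, then 6 mM ATP and 400 μM HDAC5tide (both 2× final) were added for 2 h. ADP formed was measured by ADP-Glo Max (2 h reagent, 1 h detection) using luminescence.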

SIK2, sequence (Q9H0K1 whole entry, species assumed): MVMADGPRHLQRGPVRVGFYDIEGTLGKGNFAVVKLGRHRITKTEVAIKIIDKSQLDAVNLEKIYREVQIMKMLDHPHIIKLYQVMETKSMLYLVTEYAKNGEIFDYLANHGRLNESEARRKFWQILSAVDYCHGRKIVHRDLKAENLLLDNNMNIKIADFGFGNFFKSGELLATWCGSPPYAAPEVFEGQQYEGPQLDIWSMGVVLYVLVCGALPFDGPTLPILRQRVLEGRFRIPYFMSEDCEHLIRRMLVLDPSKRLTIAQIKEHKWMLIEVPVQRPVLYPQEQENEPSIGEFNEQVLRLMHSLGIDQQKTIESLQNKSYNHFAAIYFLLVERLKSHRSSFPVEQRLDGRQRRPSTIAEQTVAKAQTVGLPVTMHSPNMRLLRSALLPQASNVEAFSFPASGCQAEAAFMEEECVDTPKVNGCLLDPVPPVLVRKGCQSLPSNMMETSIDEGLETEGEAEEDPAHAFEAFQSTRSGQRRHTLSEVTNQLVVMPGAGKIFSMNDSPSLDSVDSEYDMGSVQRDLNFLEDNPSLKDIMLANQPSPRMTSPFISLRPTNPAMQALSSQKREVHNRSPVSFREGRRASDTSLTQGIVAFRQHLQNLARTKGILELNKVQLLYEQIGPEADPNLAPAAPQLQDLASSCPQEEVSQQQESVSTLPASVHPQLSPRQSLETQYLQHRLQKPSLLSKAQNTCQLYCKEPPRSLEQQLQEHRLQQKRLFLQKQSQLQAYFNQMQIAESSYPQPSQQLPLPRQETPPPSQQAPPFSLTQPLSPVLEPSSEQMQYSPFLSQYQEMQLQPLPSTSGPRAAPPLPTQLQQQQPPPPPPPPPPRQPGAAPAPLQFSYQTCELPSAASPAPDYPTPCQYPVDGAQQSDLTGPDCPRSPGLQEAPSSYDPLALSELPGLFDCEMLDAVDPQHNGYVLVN

| SMILES | IC50 |
| --- | --- |
| CC#Cc1cc(-c2ccn3nc(NC(=O)C4CC4)cc3c2)c(O[C@H]2C[C@H]3COC[C@@H](C2)N3)cn1 [Example 436, N-[5-[5-[[(1S,5R)-3-oxa-9-azabicyclo[3.3.1]nonan-7-yl]oxy]-2-prop-1-ynyl-4-pyridyl]pyrazolo[1,5-a]pyridin-2-yl]cyclopropanecarboxamide] | < 0.000847 µM |
| Cc1cc(-c2ccn3nc(Nc4ncc(F)cn4)cc3c2)c(O[C@H]2C[C@H]3COC[C@@H](C2)N3)cn1 [Example 404, N-(5-fluoropyrimidin-2-yl)-5-[2-methyl-5-[[(1S,5R,7s)-3-oxa-9-azabicyclo[3.3.1]nonan-7-yl]oxy]-4-pyridyl]pyrazolo[1,5-a]pyridin-2-amine] | 0.058 µM |
| Cc1cc(-c2ccn3nc(NC(=O)C4CC4)cc3c2)c(OCC2NCC2(F)F)cn1 (racemic) [Example 469, rac-N-[5-[5-[(3,3-difluoroazetidin-2-yl)methoxy]-2-methyl-4-pyridyl]pyrazolo[1,5-a]pyridin-2-yl]cyclopropanecarboxamide] | 0.00448 µM |
| CNC(=O)c1ccc(Nc2cc3cc(-c4cc(C)ncc4O[C@H]4C[C@H]5COC[C@@H](C4)N5)ccn3n2)nc1 [Example 173, 6-((5-(5-(((1R,5S,7s)-3-oxa-9-azabicyclo[3.3.1]nonan-7-yl)oxy)-2-methylpyridin-4-yl)pyrazolo[1,5-a]pyridin-2-yl)amino)-N-methylnicotinamide] | < 0.000847 µM |
| Cc1cc(-c2ccn3nc(NC(=O)C4CC4)cc3c2)c(O[C@@H]2CN(C)[C@@H]2C)cn1 (relative stereo) [Example 455, *R, *R—N-[5-[5-(1,2-dimethylazetidin-3-yl)oxy-2-methyl-4-pyridyl]pyrazolo[1,5-a]pyridin-2-yl]cyclopropanecarboxamide] | 0.0356 µM |
| CC[C@@H]1NC[C@@H]1Oc1cnc(C)cc1-c1ccn2nc(NC(=O)C3CC3)cc2c1 (relative stereo) [Example 453, (*S, *S)—N-[5-[5-(2-ethylazetidin-3-yl)oxy-2-methyl-4-pyridyl]pyrazolo[1,5-a]pyridin-2-yl]cyclopropanecarboxamide] | 0.0334 µM |
| Cc1cc(-c2ccn3nc(Nc4ccc(C(F)(F)F)cn4)cc3c2)c(O[C@H]2C[C@H]3COC[C@@H](C2)N3)cn1 [Example 374, 5-[2-methyl-5-[[(1S,5R,7s)-3-oxa-9-azabicyclo[3.3.1]nonan-7-yl]oxy]-4-pyridyl]-N-[5-(trifluoromethyl)-2-pyridyl]pyrazolo[1,5-a]pyridin-2-amine] | < 0.000847 µM |
| Cc1cc(-c2ccn3nc(Nc4cnn(CC(C)(C)O)c4)cc3c2)c(O[C@H]2C[C@H]3COC[C@@H](C2)N3)cn1 [Example 121] | 0.00116 µM |
| Cc1cc(-c2ccn3nc(Nc4cc(C)nc(C)n4)cc3c2)c(OC[C@@H]2CCN2C)cn1 [Example 521, N-(2,6-dimethylpyrimidin-4-yl)-5-[2-methyl-5-[[(2S)-1-methylazetidin-2-yl]methoxy]-4-pyridyl]pyrazolo[1,5-a]pyridin-2-amine] | 0.0607 µM |
| CC#Cc1cc(-c2ccn3nc(NC(=O)C4CC4)cc3c2)c(O[C@@H]2C[C@H]3COC[C@@H](C2)N3)cn1 [Example 439, N-[5-[5-[[(1S,5R)-3-oxa-9-azabicyclo[3.3.1]nonan-7-yl]oxy]-2-prop-1-ynyl-4-pyridyl]pyrazolo[1,5-a]pyridin-2-yl]cyclopropanecarboxamide] | 0.00103 µM |
| Cc1cc(-c2ccn3nc(Nc4ccc(C(=O)N(C)C)cn4)cc3c2)c(O[C@H]2C[C@H]3COC[C@@H](C2)N3)cn1 [Example 383, N,N-dimethyl-6-[[5-[2-methyl-5-[[(1S,5R,7s)-3-oxa-9-azabicyclo[3.3.1]nonan-7-yl]oxy]-4-pyridyl]pyrazolo[1,5-a]pyridin-2-yl]amino]pyridine-3-carboxamide] | 0.000947 µM |

Same assay, conditions: enzyme 6 nM, 6 mM ATP and 400 μM HDAC5tide (each 2× final concentration); 30 minutes pre-incubation, 2 hours; ADP-Glo Max luminescence; read-out: SIK2 high ATP IC50 (μM) (Test Example 2)

| SMILES | IC50 |
| --- | --- |
| Cc1cnc(Nc2cc3cc(-c4cc(C)ncc4OC[C@]45C[C@H](CO4)N(C)C5)ccn3n2)cn1 [Example 236, 5-[2-methyl-5-[[(1R,4R)-2-methyl-5-oxa-2-azabicyclo[2.2.1]heptan-4-yl]methoxy]-4-pyridyl]-N-(5-methylpyrazin-2-yl)pyrazolo[1,5-a]pyridin-2-amine] | 0.0172 µM |
| CC(C)(C#N)COc1cnc(OC(F)F)cc1-c1ccn2nc(Nc3cc4c(cn3)CNCC4)cc2c1 [Example 716, 3-[[6-(difluoromethoxy)-4-[2-(5,6,7,8-tetrahydro-2,7-naphthyridin-3-ylamino)pyrazolo[1,5-a]pyridin-5-yl]-3-pyridyl]oxy]-2,2-dimethyl-propanenitrile] | 0.0118 µM |
| Cc1cc(Nc2cc3cc(-c4cc(OC(F)F)ncc4OC[C@@H]4CC(=O)NC4(C)C)ccn3n2)nc(C)n1 (single isomer, unassigned) [Example 731] | 0.00997 µM |
| Cc1cc(-c2ccn3nc(Nc4cncc(C)n4)cc3c2)c(OC[C@H]2OCC[C@@H]2O)cn1 [Example 297, (2R,3S)-2-[[6-methyl-4-[2-[(6-methylpyrazin-2-yl)amino]pyrazolo[1,5-a]pyridin-5-yl]-3-pyridyl]oxymethyl]tetrahydrofuran-3-ol] | 0.00781 µM |
| Cc1cc(-c2ccn3nc(Nc4cc(C)nc(C)n4)cc3c2)c(OCC2CC(=O)N(C)C2(C)C)cn1 (racemic) [Example 325, (rac)-4-[[4-[2-[(2,6-dimethylpyrimidin-4-yl)amino]pyrazolo[1,5-a]pyridin-5-yl]-6-methyl-3-pyridyl]oxymethyl]-1,5,5-trimethyl-pyrrolidin-2-one] | 0.00265 µM |
| Cc1cc(-c2ccn3nc(Nc4cc(C)nc(N5CCOCC5)n4)cc3c2)c(OC[C@H]2OCC[C@@H]2O)cn1 [Example 294, (2R,3S)-2-[[6-methyl-4-[2-[(6-methyl-2-morpholino-pyrimidin-4-yl)amino]pyrazolo[1,5-a]pyridin-5-yl]-3-pyridyl]oxymethyl]tetrahydrofuran-3-ol] | 0.0138 µM |
| Cc1cc(-c2ccn3nc(Nc4ccc(C)nn4)cc3c2)c(OCC(C)(C)O)cn1 [Example 612, 2-methyl-1-[[6-methyl-4-[2-[(6-methylpyridazin-3-yl)amino]pyrazolo[1,5-a]pyridin-5-yl]-3-pyridyl]oxy]propan-2-ol] | 0.115 µM |
| CCn1nc(Nc2cc3cc(-c4cc(C)ncc4OCC(C)(C)O)ccn3n2)cc(C)c1=O [Example 247, 2-ethyl-6-[[5-[5-(2-hydroxy-2-methyl-propoxy)-2-methyl-4-pyridyl]pyrazolo[1,5-a]pyridin-2-yl]amino]-4-methyl-pyridazin-3-one] | 0.00712 µM |
| Cc1cc(Nc2cc3cc(-c4cc(OCC#N)ncc4OC[C@H]4OCC[C@@H]4O)ccn3n2)nc(C)n1 [Example 500, 2-[[4-[2-[(2,6-dimethylpyrimidin-4-yl)amino]pyrazolo[1,5-a]pyridin-5-yl]-5-[[(2R,3S)-3-hydroxytetrahydrofuran-2-yl]methoxy]-2-pyridyl]oxy]acetonitrile] | 0.0454 µM |
| Cc1cc(-c2ccn3nc(Nc4ccc5nccn5n4)cc3c2)c(OCC(C)(C)O)cn1 [Example 260, 1-[[4-[2-(imidazo[1,2-b]pyridazin-6-ylamino)pyrazolo[1,5-a]pyridin-5-yl]-6-methyl-3-pyridyl]oxy]-2-methyl-propan-2-ol] | 0.0183 µM |
| Cc1cc(-c2ccn3nc(Nc4cnc5cc[nH]c5n4)cc3c2)c(OCC(C)(C)O)cn1 [Example 291, 2-methyl-1-[[6-methyl-4-[2-(5H-pyrrolo[2,3-b]pyrazin-3-ylamino)pyrazolo[1,5-a]pyridin-5-yl]-3-pyridyl]oxy]propan-2-ol] | 0.00809 µM |
| Cc1cc(-c2ccn3nc(Nc4cc(C)nc(C)n4)cc3c2)c(O[C@H]2CC[C@H](O)CC2)cn1 [Example 198, trans-4-[[4-[2-[(2,6-dimethylpyrimidin-4-yl)amino]pyrazolo[1,5-a]pyridin-5-yl]-6-methyl-3-pyridyl]oxy]cyclohexanol] | 0.00877 µM |
| Cc1cc(-c2cn3cc(Nc4cc(C)nc(C)n4)nc3cn2)c(O[C@H]2CC[C@H](O)CC2)cn1 [Example 507, 4-[[4-[2-[(2,6-dimethylpyrimidin-4-yl)amino]imidazo[1,2-a]pyrazin-6-yl]-6-methyl-3-pyridyl]oxy]cyclohexanol] | 0.0297 µM |
| Cc1cc(-c2ccn3nc(Nc4cc(C)nc(C(C)(C)C)n4)cc3c2)c(OC[C@H]2OCC[C@@H]2O)cn1 [Example 298, (2R,3S)-2-[[4-[2-[(2-tert-butyl-6-methyl-pyrimidin-4-yl)amino]pyrazolo[1,5-a]pyridin-5-yl]-6-methyl-3-pyridyl]oxymethyl]tetrahydrofuran-3-ol] | 0.00667 µM |
| Cc1cc(-c2ccn3nc(NC(=O)C4CC4)cc3c2)c(OC[C@@H](N)C(F)(F)F)cn1 [Example 570, N-[5-[5-[(2R)-2-amino-3,3,3-trifluoro-propoxy]-2-methyl-4-pyridyl]pyrazolo[1,5-a]pyridin-2-yl]cyclopropanecarboxamide] | 0.0943 µM |
| Cc1cc(-c2ccn3nc(Nc4cc(C)nc(C)n4)cc3c2)c(O[C@H]2COC[C@H]2C)cn1 (single isomer, unassigned) [Example 534, (3*R, 4*R)—N-(2,6-dimethylpyrimidin-4-yl)-5-[2-methyl-5-(4-methyltetrahydrofuran-3-yl)oxy-4-pyridyl]pyrazolo[1,5-a]pyridin-2-amine] | 0.0145 µM |
| Cc1cc(Nc2cc3cc(-c4cc(C#N)ccc4OCC(C)(C)O)ccn3n2)nc(C)n1 [Example 484, 3-[2-[(2,6-dimethylpyrimidin-4-yl)amino]pyrazolo[1,5-a]pyridin-5-yl]-4-(2-hydroxy-2-methyl-propoxy)benzonitrile] | 0.0571 µM |
| Cc1cc(-c2ccn3nc(Nc4cc(F)c(C(=O)NC5CC5)c(F)c4)cc3c2)c(O[C@H]2CC[C@H](O)CC2)cn1 [Example 614, N-cyclopropyl-2,6-difluoro-4-[[5-[5-(4-hydroxycyclohexoxy)-2-methyl-4-pyridyl]pyrazolo[1,5-a]pyridin-2-yl]amino]benzamide] | 0.0879 µM |
| CC(C)(C#N)COc1cnc(OCC(F)F)cc1-c1ccn2nc(Nc3cnccn3)cc2c1 [Example 689, 3-[[6-(2,2-difluoroethoxy)-4-[2-(pyrazin-2-ylamino)pyrazolo[1,5-a]pyridin-5-yl]-3-pyridyl]oxy]-2,2-dimethyl-propanenitrile] | 0.00136 µM |
